Measurements published in patent US20230285321A1, “COMPOSITIONS AND METHODS USING A COMBINATION OF AUTOPHAGY INDUCER AND HIGH PROTEIN FOR INDUCTION OF AUTOPHAGY” (SOCIETE DES PRODUITS NESTLE S.A., priority 2018, published 2023).

System: LC3-II protein (muscle autophagy) in skeletal muscle (quadriceps)
Assay: LC3-II western blot (normalized to GAPDH) in quadriceps of mice fed defined diets, with or without autophagy inducer in drinking water
Format: in vivo, C57b16/J mice
Settings: 4 weeks ad libitum, 3 mM in drinking water
Procedure: 10-15 week-old C57b16/J mice were fed during ad libitum for 4 weeks with one of: a standard diet, a diet rich in proteins and poor in carbohydrates (high protein isocaloric), or a diet poor in proteins and rich in carbohydrates (low protein isocaloric). Each group was treated or not with 3 mM of autophagy inducer (e.g., spermidine) in the drinking water. Standard diet was composed of 16% fats (Soybean oil), 20% proteins (casein) and 64% carbohydrates (40% cornstarch, 14% dextrinized cornstarch, 10% sucrose). Low protein diet was composed of 16% fats (Soybean oil), 5% proteins (casein) and 79% carbohydrates (62% cornstarch, 10% dextrinized cornstarch, 7% sucrose). […]
Total protein lysates were extracted from 30-50 mg of tissues homogenized in 20 ml/g of RIPA buffer (150 mM sodium chloride, 50 mM Tris pH: 8, 1% Triton X-100, 0.5% deoxycolate, 0.1% SDS, protease inhibitors cocktail) with a tissue dissociator (gentleMACS Miltenyi Biotec). Protein concentration was determined by BCA assay, and samples were prepared adding 4X LDS sample buffer (Invitrogen). […] Membranes were incubated with LC3 (Novus Biologicals 2220) and GAPDH (Cell Signaling 2118) antibodies and detected with ECL substrates (Pierce). Protein quantification was performed by densitometric analysis of images using ImageJ software. […]

NCCCCNCCCN [spermidine]
muscle autophagy (LC3-II protein amount normalized to GAPDH) (high-protein isocaloric diet (60% proteins), ***p<0.001): synergistically induces muscle autophagy | muscle autophagy (LC3-II protein amount normalized to GAPDH) (low protein isocaloric diet (5% proteins)): inactive
